US20180362766A1, “Fluorogenic pH-Sensitive Dyes and Their Methods of Use” (Life Technologies Corporation, priority 2012, published 2018)

Test system: phagocytic J774.2 murine macrophages
Test: No-wash phagocytosis assay with dye-conjugated E. coli bioparticles
Assay type: cell-based
Settings: E. coli bioparticles conjugated to a pH-sensitive fluorescent dye
Description: Certain embodiments provide for a no-wash, no-quench assay for phagocytosis that is based on fluorogenic bioparticles comprising the pH-sensitive fluorescent dye compounds provided herein. Current protocols for measuring phagocytosis that use fluorescent bioparticles, require a trypan blue quenching step and several washing steps. These steps can introduce significant variability in the assay. To address this issue, provided herein is a no-wash phagocytosis kit, using E. coli bioparticles conjugated to a pH-sensitive fluorescent dye as described herein. These bioparticle conjugates are weakly fluorescent at extracellular pH. […] The pH-sensitive fluorescent bioparticles described herein may be used in plate based, as well as imaging and flow cytometry assays of phagocytosis.

Structure (SMILES): C=C1[C@@H](C)[C@H]2[C@H](Cc3ccccc3)NC(=O)[C@]23[C@H](OC(C)=O)/C=C/[C@@](C)(O)C(=O)[C@@H](C)C/C=C/[C@H]3[C@@H]1O [cytochalaisin D, cytochalasin D]
- inhibition of uptake of the bioparticles (phagocytosis): potently inhibited
